Data reported in article PMC7044277 (Nature Communications, 2020).
Values joined by “and” are separate entries in the source; they are usually repeats but may differ in a detail not shown here. Equal entries are not always repeated.

Experiments:
Assay type in all cases: cell-based
[1] = biological target: 320 non-olfactory GPCRs (Homo sapiens, UniProt P21917)
[2] = biological target: T1, 320 non-olfactory GPCRs (Homo sapiens, UniProt P46092)
T1 construct: expressed in transfected cells; host or cells: HTLA cells

[3] = biological target: T2, 320 non-olfactory GPCRs (Homo sapiens, UniProt Q969V1); conditions: receptor MCHR2R; replicate values, Fig_4g
T2 construct: expressed in transfected cells; host or cells: HTLA cells

[4] = biological target: 320 non-olfactory GPCRs (Homo sapiens, UniProt Q96PE1)
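For Fold of Basal in this document: compound tested at 1 µM final concentration.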
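For GPCRome agonism screen response in this document: fold over basal response of each receptor without drug.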

Chain of 320 non-olfactory GPCRs (Homo sapiens, UniProt P21917) (P21917 whole entry): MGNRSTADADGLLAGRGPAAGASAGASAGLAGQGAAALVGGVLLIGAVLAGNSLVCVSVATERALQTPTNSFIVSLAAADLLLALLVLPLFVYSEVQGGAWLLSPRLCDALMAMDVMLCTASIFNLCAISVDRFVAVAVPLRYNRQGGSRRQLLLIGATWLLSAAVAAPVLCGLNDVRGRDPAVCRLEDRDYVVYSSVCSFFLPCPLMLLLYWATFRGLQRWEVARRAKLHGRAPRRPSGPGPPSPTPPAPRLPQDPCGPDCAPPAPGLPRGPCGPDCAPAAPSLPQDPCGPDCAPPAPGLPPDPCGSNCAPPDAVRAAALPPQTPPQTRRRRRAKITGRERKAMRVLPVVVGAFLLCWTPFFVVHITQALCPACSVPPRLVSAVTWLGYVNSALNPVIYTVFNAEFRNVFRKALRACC
T1 sequence (P46092 whole entry): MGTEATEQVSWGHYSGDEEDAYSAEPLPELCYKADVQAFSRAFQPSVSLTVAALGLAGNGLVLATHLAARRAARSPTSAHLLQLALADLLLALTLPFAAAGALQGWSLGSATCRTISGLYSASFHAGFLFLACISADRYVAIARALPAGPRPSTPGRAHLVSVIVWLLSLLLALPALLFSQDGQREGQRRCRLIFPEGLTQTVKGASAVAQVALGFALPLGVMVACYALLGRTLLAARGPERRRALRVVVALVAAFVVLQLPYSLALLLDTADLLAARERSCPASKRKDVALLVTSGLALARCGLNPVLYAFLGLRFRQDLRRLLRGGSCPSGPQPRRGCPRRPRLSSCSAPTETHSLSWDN
T2 sequence (Q969V1 whole entry): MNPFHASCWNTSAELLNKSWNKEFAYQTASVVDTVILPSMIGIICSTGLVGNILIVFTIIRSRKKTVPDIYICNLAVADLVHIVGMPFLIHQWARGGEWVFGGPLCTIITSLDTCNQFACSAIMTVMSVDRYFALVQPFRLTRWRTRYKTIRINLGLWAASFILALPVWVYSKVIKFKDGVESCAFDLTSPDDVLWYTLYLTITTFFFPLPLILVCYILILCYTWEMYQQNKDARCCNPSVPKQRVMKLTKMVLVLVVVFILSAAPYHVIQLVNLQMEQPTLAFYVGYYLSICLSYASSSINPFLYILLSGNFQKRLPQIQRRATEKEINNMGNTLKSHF
Chain of 320 non-olfactory GPCRs (Homo sapiens, UniProt Q96PE1) (Q96PE1 34-1338): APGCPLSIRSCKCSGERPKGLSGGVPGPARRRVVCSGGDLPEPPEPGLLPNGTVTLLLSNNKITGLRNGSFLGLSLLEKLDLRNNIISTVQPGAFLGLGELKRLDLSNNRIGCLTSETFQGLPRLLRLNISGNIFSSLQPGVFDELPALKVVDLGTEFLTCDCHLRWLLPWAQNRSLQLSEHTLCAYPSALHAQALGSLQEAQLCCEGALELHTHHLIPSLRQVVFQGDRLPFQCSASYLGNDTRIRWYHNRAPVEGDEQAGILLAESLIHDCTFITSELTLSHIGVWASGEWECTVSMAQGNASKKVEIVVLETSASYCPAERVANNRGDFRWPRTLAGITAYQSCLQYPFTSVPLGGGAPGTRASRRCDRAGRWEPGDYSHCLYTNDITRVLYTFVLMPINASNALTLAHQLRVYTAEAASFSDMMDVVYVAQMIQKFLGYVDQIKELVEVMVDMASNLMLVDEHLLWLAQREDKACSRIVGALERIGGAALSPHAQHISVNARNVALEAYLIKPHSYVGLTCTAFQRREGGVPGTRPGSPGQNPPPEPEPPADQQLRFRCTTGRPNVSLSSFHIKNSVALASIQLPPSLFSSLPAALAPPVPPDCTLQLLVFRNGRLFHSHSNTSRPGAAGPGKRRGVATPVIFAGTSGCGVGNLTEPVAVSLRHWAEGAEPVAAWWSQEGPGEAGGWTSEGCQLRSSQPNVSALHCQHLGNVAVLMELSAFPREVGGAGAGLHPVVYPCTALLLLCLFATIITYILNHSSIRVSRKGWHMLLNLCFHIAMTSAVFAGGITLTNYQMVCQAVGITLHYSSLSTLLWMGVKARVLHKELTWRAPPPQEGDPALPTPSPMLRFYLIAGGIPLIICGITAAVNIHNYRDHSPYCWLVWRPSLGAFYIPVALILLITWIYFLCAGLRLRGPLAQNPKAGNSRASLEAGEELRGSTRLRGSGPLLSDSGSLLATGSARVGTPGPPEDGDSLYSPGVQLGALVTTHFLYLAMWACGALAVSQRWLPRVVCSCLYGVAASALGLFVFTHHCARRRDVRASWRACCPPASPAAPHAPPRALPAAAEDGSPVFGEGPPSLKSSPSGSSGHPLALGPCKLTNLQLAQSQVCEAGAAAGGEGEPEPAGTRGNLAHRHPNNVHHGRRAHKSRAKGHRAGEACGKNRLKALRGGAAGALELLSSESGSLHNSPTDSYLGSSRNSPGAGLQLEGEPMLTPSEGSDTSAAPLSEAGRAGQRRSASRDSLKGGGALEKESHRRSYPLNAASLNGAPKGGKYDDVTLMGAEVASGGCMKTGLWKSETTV

## CCOc1cccc2cc(C(C)NCC3(O)CCCCC3)oc12 (stereo not shown) [O4LE6]
[1]
  Fold of Basal: 1.429 and 1.1388 and 0.8668 and 1.288
[2]
  Fold of Basal: 0.7929 and 1.009 and 0.769 and 1.275
[3]
  GPCRome agonism screen response: 1.156 and 0.4645 and 1.04 and 0.6466
[4]
  Fold of Basal: 1.7314 and 1.927 and 1.697 and 1.27
